Data set [1] deals with E. coli. Description: E. coli growth inhibition test, OD at 595 nm. The data set is classed as cell-based. The method, then: Overnight cultures of E. coli cells (OneShot® Chemically Competent E. Coli, Cat. No. C4040-10, Invitrogen) in LB media (Cat. No. X968.2, Carl-Roth, Germany) were initially done. For the growth inhibition tests cultures were prepared by initially dispersing VO(acac)2 (Sigma Aldrich, 0.08 mg/ml) in 5 ml LB medium to which KBr (1 mM) and H2O2 (100 μM) were added. To start the culture 20 μl of the overnight E. coli stock was added. The cultures were kept at 37° C. with agitation, and the OD was measured at 595 nm at different time points until 180 min (beginning of stationary phase). As controls either only VO(acac)2 or only H2O2/Br^− was added to the cultures in the concentrations given above. For comparative purposes the same assay was done with V2O5 nanowires (Example 1) in the same concentration range as VO(acac)2 (0.08 mg/ml).

Data set [2] has as its system E. coli. Description: Biocidal rosine paint formulations on steel plates, DAPI fluorescence, qualitative. The class given is cell-based. Particulars: Br- 1 mM, H2O2, 3 days at 37° C. As to the method: A self-polishing rosine formulation was prepared as follows: 22 g of Rosine/Kolophonium (Aldrich) was mixed with 8 g Xylene (Aldrich) and stirred 45 min until well dissolved. Under continuous stirring 0.4 g Thixatrol Max (Elementis) and 1.5 g Bentone SD 1 (Elementis) were added and stirred for at least 5 min. Under continuous stirring 10 g zinc oxide (Aldrich) [optional], 9 g iron oxide red (Aldrich) [optional], 15 g talcum (Aldrich), ×g of biocide and 10-×g of barium sulfate as a filler were added, and the whole mixture was dispersed for at least 15 min at 600-900 rpm. Under stirring 8 g Xylene (Aldrich), 6.7 g Hordaflex LC 50 (Leuna-Tenside) and 8 g petrol 140/180 (Merck) were added.
Steel plates of 2×2 cm were painted directly with no previous treatment with said rosine formulation by brushing and drying for 3 days at room temperature. No surface characterization was performed. […]
After incubation the substrates were gently washed with LB media and PBS buffer. Bacterial cells were stained with […] (DAPI, 1 mg/ml), and fluorescence analysis was performed using an Olympus AHBT3 light microscope together with an AH3-RFC reflected light fluorescence attachment. The presence of bacterial colonies was easily detected by the presence of bright blue “dots” or “clusters”. […]

Data set [3] deals with V-CPO from C. inaequalis (Curvularia inaequalis, UniProt P49053, L241V/P395D/T343A). The note with it: cited from earlier work.
V-CPO from C. inaequalis, sequence (P49053 whole entry L241V/T343A/P395D): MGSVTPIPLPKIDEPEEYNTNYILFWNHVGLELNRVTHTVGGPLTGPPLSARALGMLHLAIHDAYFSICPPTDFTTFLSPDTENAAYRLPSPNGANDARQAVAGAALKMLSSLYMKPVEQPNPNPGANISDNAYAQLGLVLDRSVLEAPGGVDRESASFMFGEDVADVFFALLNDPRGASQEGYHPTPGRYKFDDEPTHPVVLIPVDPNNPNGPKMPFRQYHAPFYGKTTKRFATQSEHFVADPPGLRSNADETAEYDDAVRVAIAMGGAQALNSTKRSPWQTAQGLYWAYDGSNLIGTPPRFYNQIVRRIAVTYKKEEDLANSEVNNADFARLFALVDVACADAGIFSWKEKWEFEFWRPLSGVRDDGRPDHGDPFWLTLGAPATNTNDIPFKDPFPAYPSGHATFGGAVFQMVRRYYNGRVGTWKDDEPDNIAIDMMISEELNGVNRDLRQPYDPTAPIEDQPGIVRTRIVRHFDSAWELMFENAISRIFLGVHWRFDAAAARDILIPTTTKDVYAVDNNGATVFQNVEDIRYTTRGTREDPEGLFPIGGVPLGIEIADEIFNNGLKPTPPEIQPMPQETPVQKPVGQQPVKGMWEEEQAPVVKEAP

With Vanadyl acetylacetonate [VO(acac)2], the “Decay in E. coli growth (%)” value in data set [1] (0.08 mg/ml, KBr 1 mM, H2O2 100 μM as named in sample, 180 min) came out at 6%. In addition, the “antimicrobial activity by itself” value in data set [1] (without H2O2/Br-) is “no relevant antimicrobial activity”. In addition, the “adherence of E. coli to painted surface” value in data set [2] (0.5% biocide in dry film) and in data set [2] (10% biocide in dry film) was “inhibited the adhesion of E. coli” throughout.

B1: wild-type V-CPO from C. inaequalis: wild-type vanadium chloroperoxidase from C. inaequalis (protein, UniProt P49053 1-609, looked up)
Vanadium chloroperoxidase: MGSVTPIPLPKIDEPEEYNTNYILFWNHVGLELNRVTHTVGGPLTGPPLSARALGMLHLAIHDAYFSICPPTDFTTFLSPDTENAAYRLPSPNGANDARQAVAGAALKMLSSLYMKPVEQPNPNPGANISDNAYAQLGLVLDRSVLEAPGGVDRESASFMFGEDVADVFFALLNDPRGASQEGYHPTPGRYKFDDEPTHPVVLIPVDPNNPNGPKMPFRQYHAPFYGKTTKRFATQSEHFLADPPGLRSNADETAEYDDAVRVAIAMGGAQALNSTKRSPWQTAQGLYWAYDGSNLIGTPPRFYNQIVRRIAVTYKKEEDLANSEVNNADFARLFALVDVACTDAGIFSWKEKWEFEFWRPLSGVRDDGRPDHGDPFWLTLGAPATNTNDIPFKPPFPAYPSGHATFGGAVFQMVRRYYNGRVGTWKDDEPDNIAIDMMISEELNGVNRDLRQPYDPTAPIEDQPGIVRTRIVRHFDSAWELMFENAISRIFLGVHWRFDAAAARDILIPTTTKDVYAVDNNGATVFQNVEDIRYTTRGTREDPEGLFPIGGVPLGIEIADEIFNNGLKPTPPEIQPMPQETPVQKPVGQQPVKGMWEEEQAPVVKEAP
As to B1, in data set [3], the “optimal pH” value was 5.5.

The values are drawn from US20150191606A1, “USE OF VANADIUM-CONTAINING PARTICLES AS A BIOCIDE” (priority 2012, published 2015).
